Key:
[1] = target: T1, P2Y receptor (taenia coli) (Cavia porcellus, UniProt P59902); experiment: Relaxation of carbachol-contracted guinea pig taenia coli
T1 construct: Relaxant responses mediated via P2Y receptors were examined in guinea pig taenia coli; from tissue; host or cells: guinea pig taenia coli (carbachol-contracted)
Summary of the method: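 Guinea pig taenia coli precontracted with 50 nM carbachol; relaxation to applied P2Y agonists expressed as percentage relaxation against negative log molar agonist concentration.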

[2] = tested on: P2Y receptor (aorta endothelium); experiment: Relaxation of noradrenalin-contracted rabbit aorta; conditions: rabbit aorta; log molar units
[3] = target: P2Y receptor (mesenteric artery); experiment: Relaxation of rabbit mesenteric artery; conditions: log molar units
From the text: Muscular relaxation/contraction: Relaxant responses mediated via P2Y receptors were examined in guinea pig taenia coli, rabbit aorta, and rabbit mesenteric artery, as described by Hoyle et al. (Br. J. Pharmacol., 107, 367-374 (1992a)), Burnstock et al., (Br. J. Pharmacol., 90, 383-391 (1987a)), and Rubino et al., (Eur. J. Pharmacol., 212, 237-240 (1992)).

[4] = target: T2, P2X receptor (saphenous artery) (Oryctolagus cuniculus, UniProt G1U3D6); experiment: Contraction of rabbit saphenous artery; conditions: rabbit saphenous artery; for activation at 10 µM: read-out: response at 10 μM relative to the contraction produced by 1 μM α,MeATP, saph. artery
T2 construct: and rabbit saphenous artery; from tissue; host or cells: rabbit saphenous artery
T2 sequence (G1U3D6 1-399): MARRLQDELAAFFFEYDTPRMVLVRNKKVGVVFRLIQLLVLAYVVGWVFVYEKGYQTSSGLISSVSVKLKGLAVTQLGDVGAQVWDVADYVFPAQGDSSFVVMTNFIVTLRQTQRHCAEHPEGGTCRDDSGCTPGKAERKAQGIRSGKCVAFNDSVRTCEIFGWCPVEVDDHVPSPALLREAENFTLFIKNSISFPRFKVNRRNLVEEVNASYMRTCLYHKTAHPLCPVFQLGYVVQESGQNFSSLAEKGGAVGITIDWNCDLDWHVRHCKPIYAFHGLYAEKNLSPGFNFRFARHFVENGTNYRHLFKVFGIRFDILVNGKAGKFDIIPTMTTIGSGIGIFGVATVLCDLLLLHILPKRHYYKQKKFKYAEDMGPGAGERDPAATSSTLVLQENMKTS
Summary of the method: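 Contraction of isolated rabbit saphenous artery, standard organ-bath methods; responses at 10 μM expressed as percentage of contraction produced by 1 μM α,MeATP. Highest analogue concentrations tested were 3-30 […].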

[5] = target: T3, adenylyl cyclase linked P2Y receptor (C6 rat glioma cells) (Rattus norvegicus, UniProt Q9EPX4); experiment: Inhibition of adenylyl cyclase in C6 rat glioma cells; format: cell-based; conditions: for selectivity for the adenylyl cyclase linked (C6 cell) receptor: versus phospholipase C linked turkey erythrocyte receptor
T3 construct: endogenous in cells; host or cells: C6 rat glioma cells
T3 sequence (Q9EPX4 whole entry): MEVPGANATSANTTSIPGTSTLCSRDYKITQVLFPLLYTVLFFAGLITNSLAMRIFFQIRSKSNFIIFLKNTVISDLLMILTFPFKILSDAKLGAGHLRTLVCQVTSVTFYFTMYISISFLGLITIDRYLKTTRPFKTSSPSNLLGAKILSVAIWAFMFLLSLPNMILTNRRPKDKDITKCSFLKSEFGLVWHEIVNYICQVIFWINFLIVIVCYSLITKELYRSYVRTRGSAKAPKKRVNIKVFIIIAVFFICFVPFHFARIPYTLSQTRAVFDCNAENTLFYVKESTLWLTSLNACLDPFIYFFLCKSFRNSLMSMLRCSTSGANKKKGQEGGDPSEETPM
Summary of the method: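 C6 cells labelled 2 h with [3H]adenine, preincubated 10 min at 37 °C in HEPES-buffered Eagle's medium (pH 7.5) with 200 μM IBMX. Stimulated 10 min with 10 μM isoproterenol plus varied nucleotide concentrations. Stopped with ice-cold 5% trichloroacetic acid.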

T1 sequence (P59902 whole entry): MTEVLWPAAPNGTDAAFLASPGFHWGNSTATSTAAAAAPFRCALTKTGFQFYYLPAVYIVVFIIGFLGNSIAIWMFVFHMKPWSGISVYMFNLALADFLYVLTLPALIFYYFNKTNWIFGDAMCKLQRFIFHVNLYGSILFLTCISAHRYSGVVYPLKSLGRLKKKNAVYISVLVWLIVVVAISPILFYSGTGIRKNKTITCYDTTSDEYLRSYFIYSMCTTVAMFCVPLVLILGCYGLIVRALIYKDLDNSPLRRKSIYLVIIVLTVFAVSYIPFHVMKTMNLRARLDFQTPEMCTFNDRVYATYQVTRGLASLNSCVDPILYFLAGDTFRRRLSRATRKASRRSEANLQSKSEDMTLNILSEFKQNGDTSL

Structure (SMILES)	EC50 [1] [nM]	relaxation pD2, aorta [2]	relaxation pD2, mes. artery [3]	activity/potency in words, saphenous artery [4]	activation at 10 µM [4] [%]	selectivity for the adenylyl cyclase linked (C6 cell) receptor [5]	relaxation pD2, taenia coli ([1]; guinea pig taenia coli, log molar units)	IC50 ([5]; C6 rat glioma cells, 10 μM isoproterenol, read-out: K0.5 values (in nM) for inhibition of adenylyl cyclase in C6 cells) [nM]
N#CCCCCCCSc1nc(N)c2ncn([C@@H]3O[C@H](COP(=O)(O)OP(=O)(O)OP(=O)(O)O)[C@@H](O)[C@H]3O)c2n1 [2-(6-Cyanohexylthio)-ATP, 2-(6-Cyanohexylthio)adenosine-5'-triphosphate]	1.58	6.9	7.0	at best weak agonists in the saphenous artery	9.2	3.9 -fold	–	–
C=CCCCCSc1nc(NC)c2ncn([C@@H]3O[C@H](COP(=O)(O)OP(=O)(O)OP(=O)(O)O)[C@@H](O)[C@H]3O)c2n1 [N^6 -Me-2-(5-hexenyl)-thio-ATP, N^6 -Me-2-(5-hexenylthio)adenosine 5'-triphosphate]	–	5.6	6.0	–	1.5	81 -fold	7.2	0.32

From patent publication US5620676A, “Biologically active ATP analogs” (priority 1995, dated 1997)
